The target in the experiment is T1, Pol δ (Saccharomyces cerevisiae, UniProt P15436).
T1 sequence (P15436 1-1097): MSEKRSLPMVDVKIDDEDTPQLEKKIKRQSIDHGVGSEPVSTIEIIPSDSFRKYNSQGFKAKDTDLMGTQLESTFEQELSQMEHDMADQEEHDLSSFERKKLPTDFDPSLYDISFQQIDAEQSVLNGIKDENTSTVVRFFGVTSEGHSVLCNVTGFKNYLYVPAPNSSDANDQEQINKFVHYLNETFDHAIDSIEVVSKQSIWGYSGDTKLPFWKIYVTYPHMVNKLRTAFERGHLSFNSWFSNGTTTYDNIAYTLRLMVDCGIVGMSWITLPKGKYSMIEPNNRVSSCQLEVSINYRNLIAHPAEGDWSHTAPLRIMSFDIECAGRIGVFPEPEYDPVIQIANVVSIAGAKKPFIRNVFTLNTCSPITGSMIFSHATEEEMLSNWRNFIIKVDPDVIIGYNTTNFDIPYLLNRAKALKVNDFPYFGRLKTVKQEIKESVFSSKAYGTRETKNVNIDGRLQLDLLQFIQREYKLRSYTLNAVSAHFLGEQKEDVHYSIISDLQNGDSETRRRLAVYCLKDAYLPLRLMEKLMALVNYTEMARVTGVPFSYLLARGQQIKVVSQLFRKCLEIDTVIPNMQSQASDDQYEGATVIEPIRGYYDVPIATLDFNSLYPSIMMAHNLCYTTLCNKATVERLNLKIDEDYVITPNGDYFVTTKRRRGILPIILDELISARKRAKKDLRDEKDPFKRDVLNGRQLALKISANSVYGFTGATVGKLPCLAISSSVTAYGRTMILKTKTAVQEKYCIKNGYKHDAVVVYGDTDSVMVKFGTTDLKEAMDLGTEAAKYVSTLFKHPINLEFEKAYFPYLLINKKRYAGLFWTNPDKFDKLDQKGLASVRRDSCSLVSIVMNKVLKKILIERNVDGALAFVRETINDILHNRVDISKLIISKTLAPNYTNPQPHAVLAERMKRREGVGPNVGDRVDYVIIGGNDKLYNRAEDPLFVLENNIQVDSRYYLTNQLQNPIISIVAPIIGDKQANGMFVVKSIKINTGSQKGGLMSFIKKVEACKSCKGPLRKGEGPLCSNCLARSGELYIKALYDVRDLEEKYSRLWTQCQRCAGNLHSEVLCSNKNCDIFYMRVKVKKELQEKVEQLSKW
T1 sequence (P46957 1-487 partner): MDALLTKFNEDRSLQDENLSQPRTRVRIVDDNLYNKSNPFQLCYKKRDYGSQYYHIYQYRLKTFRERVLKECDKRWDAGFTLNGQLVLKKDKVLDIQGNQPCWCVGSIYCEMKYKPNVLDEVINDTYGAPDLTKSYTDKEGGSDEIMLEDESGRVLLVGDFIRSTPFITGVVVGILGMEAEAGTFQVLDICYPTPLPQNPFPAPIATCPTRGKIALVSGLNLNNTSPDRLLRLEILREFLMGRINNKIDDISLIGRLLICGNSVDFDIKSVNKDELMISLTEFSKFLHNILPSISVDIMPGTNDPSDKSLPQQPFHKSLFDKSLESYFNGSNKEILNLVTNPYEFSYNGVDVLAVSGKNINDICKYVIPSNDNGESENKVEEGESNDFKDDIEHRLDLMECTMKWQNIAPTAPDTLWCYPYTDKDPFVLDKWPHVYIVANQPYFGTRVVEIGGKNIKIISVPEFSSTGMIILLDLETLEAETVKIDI
T1 sequence (P47110 1-350 partner): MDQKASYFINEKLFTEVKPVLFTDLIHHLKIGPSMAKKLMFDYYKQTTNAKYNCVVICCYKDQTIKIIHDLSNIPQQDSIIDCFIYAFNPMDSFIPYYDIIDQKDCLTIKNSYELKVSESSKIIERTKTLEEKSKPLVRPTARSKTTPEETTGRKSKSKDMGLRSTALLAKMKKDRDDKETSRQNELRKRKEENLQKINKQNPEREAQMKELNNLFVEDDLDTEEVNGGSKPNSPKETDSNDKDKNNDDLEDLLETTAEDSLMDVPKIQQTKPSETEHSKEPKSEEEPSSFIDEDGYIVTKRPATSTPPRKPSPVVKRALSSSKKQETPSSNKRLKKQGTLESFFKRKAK
Description: UV-Vis. Type of experiment: binding. The note with it: CysB site of Pol3; as isolated from yeast.

Each structure is given as a SMILES string.

Turning to `[S]12[Fe]3[S]4[Fe]1[S]1[Fe]2[S]3[Fe]41` [[4Fe-4S] cluster], the “mol non-heme iron and acid-labile sulfide ions per mol Pol δ” value is ~ 4 mol/mol.

The values above are taken from paper PMC3241888 (Nature chemical biology, 2011).
